{"source": "paper PMC5218480", "about": "(PLoS ONE, 2017)", "tested_on": "MV-4-11 cells", "test": "Gene expression microarray analysis (Affymetrix PrimeView) and GSEA", "type": "cell-based, human", "set-up": "RFU PODN (11730768_x_at) / Fold change /veh PODN (11730768_x_at) / RFU LINC00158 (11744669_a_at) / Fold change /veh LINC00158 (11744669_a_at) / RFU DUSP10 (11751237_a_at) / Fold change /veh DUSP10 (11751237_a_at) / RFU ID3 (11757404_x_at) / Fold change /veh ID3 (11757404_x_at) / RFU PLEKHG5 (11737974_s_at) / Fold change /veh PLEKHG5 (11737974_s_at) / RFU LRRC4B (11730491_at) / Fold change /veh LRRC4B (11730491_at) / RFU GIMAP4 (11747438_a_at) / Fold change /veh GIMAP4 (11747438_a_at) / RFU KRT8 (11758183_x_at) / Fold change /veh KRT8 (11758183_x_at) / RFU CNN1 (11734310_a_at) / Fold change /veh CNN1 (11734310_a_at) / RFU VPS37D (11726825_at) / Fold change /veh VPS37D (11726825_at) / RFU C10orf10 (11716522_x_at) / Fold change /veh C10orf10 (11716522_x_at) / RFU KIR2DL2 /// KIR2DL4 /// KIR2DL5A /// KIR2DL5B /// KIR2DS1 /// KIR2DS2 /// KIR2DS3 /// KIR2DS4 /// KIR3DL3 /// KIR3DL3 /// KIR3DS1 (11738374_at) / Fold change /veh KIR2DL2 /// KIR2DL4 /// KIR2DL5A /// KIR2DL5B /// KIR2DS1 /// KIR2DS2 /// KIR2DS3 /// KIR2DS4 /// KIR3DL3 /// KIR3DL3 /// KIR3DS1 (11738374_at) / RFU C1QL1 (11718748_at) / Fold change /veh C1QL1 (11718748_at) / RFU TMPRSS4 (11747572_a_at) / Fold change /veh TMPRSS4 (11747572_a_at) / RFU HAMP (11756126_x_at) / Fold change /veh HAMP (11756126_x_at) / RFU RNFT2 (11725882_a_at) / Fold change /veh RNFT2 (11725882_a_at) / RFU NR4A2 (11747474_a_at) / Fold change /veh NR4A2 (11747474_a_at) / RFU ABCC12 (11746883_a_at) / Fold change /veh ABCC12 (11746883_a_at) / RFU TMEM136 (11760407_x_at) / Fold change /veh TMEM136 (11760407_x_at) / RFU CLDN22 /// WWC2 (11732394_at) / Fold change /veh CLDN22 /// WWC2 (11732394_at) / RFU HLA-DPB1 (11760878_x_at) / Fold change /veh HLA-DPB1 (11760878_x_at) / RFU SPINT1 (11716480_a_at) / Fold change /veh SPINT1 (11716480_a_at) / RFU GAP43 (11754022_s_at) / Fold change /veh GAP43 (11754022_s_at) / RFU A4GNT (11735810_at) / Fold change /veh A4GNT (11735810_at) / RFU PRB3 (11715151_x_at) / Fold change /veh PRB3 (11715151_x_at) / RFU TUBB4B (11761932_at) / Fold change /veh TUBB4B (11761932_at) / RFU CAPN14 (11732068_a_at) / Fold change /veh CAPN14 (11732068_a_at) / RFU TMCC2 (11721928_a_at) / Fold change /veh TMCC2 (11721928_a_at) / RFU IRGQ (11745062_a_at) / Fold change /veh IRGQ (11745062_a_at) / RFU FAM174B (11720279_a_at) / Fold change /veh FAM174B (11720279_a_at) / RFU TMPRSS4 (11748680_a_at) / Fold change /veh TMPRSS4 (11748680_a_at) / RFU FAM212B (11763350_a_at) / Fold change /veh FAM212B (11763350_a_at) / RFU PLEKHG5 (11743358_a_at) / Fold change /veh PLEKHG5 (11743358_a_at) / RFU ZSCAN30 (11745921_a_at) / Fold change /veh ZSCAN30 (11745921_a_at) / RFU CMKLR1 (11741424_a_at) / Fold change /veh CMKLR1 (11741424_a_at) / RFU LOC101060620 /// MAPK8IP1 (11723275_at) / Fold change /veh LOC101060620 /// MAPK8IP1 (11723275_at) / RFU SPTSSB (11747773_x_at) / Fold change /veh SPTSSB (11747773_x_at) / RFU PRSS12 (11739890_at) / Fold change /veh PRSS12 (11739890_at) / RFU BIN1 (11741810_x_at) / Fold change /veh BIN1 (11741810_x_at) / RFU WNT11 (11732464_a_at) / Fold change /veh WNT11 (11732464_a_at) / RFU C10orf10 (11716521_a_at) / Fold change /veh C10orf10 (11716521_a_at) / RFU C5orf56 (11738089_at) / Fold change /veh C5orf56 (11738089_at) / RFU CYB561 (11721691_x_at) / Fold change /veh CYB561 (11721691_x_at) / RFU ANKRD19P (11752326_a_at) / Fold change /veh ANKRD19P (11752326_a_at) / RFU OR2T12 /// OR2T33 /// OR2T8 (11738714_s_at) / Fold change /veh OR2T12 /// OR2T33 /// OR2T8 (11738714_s_at) / RFU VCAN (11748164_a_at) / Fold change /veh VCAN (11748164_a_at) / RFU JSRP1 (11732532_at) / Fold change /veh JSRP1 (11732532_at) / RFU KRTAP10-11 (11738290_x_at) / Fold change /veh KRTAP10-11 (11738290_x_at) / RFU MYO3A (11730013_a_at) / Fold change /veh MYO3A (11730013_a_at) / RFU EBF3 (11725865_a_at) / Fold change /veh EBF3 (11725865_a_at) / RFU CAMK2N1 (11719241_x_at) / Fold change /veh CAMK2N1 (11719241_x_at) / RFU C5orf56 (11738088_a_at) / Fold change /veh C5orf56 (11738088_a_at) / RFU OLFML3 (11715873_a_at) / Fold change /veh OLFML3 (11715873_a_at) / RFU LOC100653217 /// NTM (11731650_a_at) / Fold change /veh LOC100653217 /// NTM (11731650_a_at) / RFU MAPK11 (11762145_a_at) / Fold change /veh MAPK11 (11762145_a_at) / RFU FIZ1 (11724087_x_at) / Fold change /veh FIZ1 (11724087_x_at) / RFU OASL (11726364_x_at) / Fold change /veh OASL (11726364_x_at) / RFU SOX15 (11748057_x_at) / Fold change /veh SOX15 (11748057_x_at) / RFU CD79A (11719716_a_at) / Fold change /veh CD79A (11719716_a_at) / RFU HIST1H1D (11736915_at) / Fold change /veh HIST1H1D (11736915_at) / RFU CASKIN2 (11723855_a_at) / Fold change /veh CASKIN2 (11723855_a_at) / RFU LOC730098 (11760151_x_at) / Fold change /veh LOC730098 (11760151_x_at) / RFU OR4N2 (11742367_at) / Fold change /veh OR4N2 (11742367_at) / RFU PRRT2 (11749266_a_at) / Fold change /veh PRRT2 (11749266_a_at) / RFU SNX32 (11753110_a_at) / Fold change /veh SNX32 (11753110_a_at) / RFU CDHR5 (11726645_a_at) / Fold change /veh CDHR5 (11726645_a_at) / RFU RCAN1 (11760418_a_at) / Fold change /veh RCAN1 (11760418_a_at) / RFU FAM167A (11723789_a_at) / Fold change /veh FAM167A (11723789_a_at) / RFU FAM26E (11764081_at) / Fold change /veh FAM26E (11764081_at) / RFU ISYNA1 (11749810_s_at) / Fold change /veh ISYNA1 (11749810_s_at) / RFU ACY1 (11761880_at) / Fold change /veh ACY1 (11761880_at) / RFU 11764098_at / Fold change /veh 11764098_at / RFU SAMD14 (11745864_x_at) / Fold change /veh SAMD14 (11745864_x_at) / RFU NPB (11741838_a_at) / Fold change /veh NPB (11741838_a_at) / RFU TMPRSS6 (11731388_a_at) / Fold change /veh TMPRSS6 (11731388_a_at) / RFU KRTAP10-2 (11738614_at) / Fold change /veh KRTAP10-2 (11738614_at) / RFU ARHGAP8 /// PRR5-ARHGAP8 (11727945_x_at) / Fold change /veh ARHGAP8 /// PRR5-ARHGAP8 (11727945_x_at) / RFU KRTAP5-7 /// NADSYN1 (11734609_at) / Fold change /veh KRTAP5-7 /// NADSYN1 (11734609_at) / RFU RASL12 (11751679_a_at) / Fold change /veh RASL12 (11751679_a_at) / RFU CDKN2B (11736163_a_at) / Fold change /veh CDKN2B (11736163_a_at) / RFU PRF1 (11729649_at) / Fold change /veh PRF1 (11729649_at) / RFU, ZNF638 /// ZNF638-IT1 / Fold change vs veh, ZNF638 /// ZNF638-IT1 / RFU, PANK3 / Fold change vs veh, PANK3 / RFU, SH3YL1 / Fold change vs veh, SH3YL1 / RFU, ZEB2 / Fold change vs veh, ZEB2 / RFU, NRIP1 / Fold change vs veh, NRIP1 / RFU, PTTG1IP / Fold change vs veh, PTTG1IP / RFU, CAPN2 / Fold change vs veh, CAPN2 / RFU, MED14 / Fold change vs veh, MED14 / RFU, SNORA58 / Fold change vs veh, SNORA58 / RFU, C1orf63 / Fold change vs veh, C1orf63 / RFU, LRRFIP1 / Fold change vs veh, LRRFIP1 / RFU, NDUFAF7 / Fold change vs veh, NDUFAF7 / RFU, SLC12A2 / Fold change vs veh, SLC12A2 / RFU, IBTK / Fold change vs veh, IBTK / RFU, ESF1 / Fold change vs veh, ESF1 / Fold change vs veh, TMEM50B / RFU, TAOK1 / Fold change vs veh, TAOK1 / RFU, ACBD3 / Fold change vs veh, ACBD3 / RFU, TMA16 / Fold change vs veh, TMA16 / RFU, RWDD3 / Fold change vs veh, RWDD3 / RFU, BCAT1 / Fold change vs veh, BCAT1 / RFU, EDEM3 / Fold change vs veh, EDEM3 / RFU, TMEM33 / Fold change vs veh, TMEM33 / RFU, WDR75 / Fold change vs veh, WDR75 / RFU, AHCTF1 / Fold change vs veh, AHCTF1 / RFU, TFRC / Fold change vs veh, TFRC / RFU, ZDHHC17 / Fold change vs veh, ZDHHC17 / RFU, NOM1 / Fold change vs veh, NOM1 / RFU, ARL8B / Fold change vs veh, ARL8B / RFU, ZBTB11 / Fold change vs veh, ZBTB11 / RFU, TAMM41 / Fold change vs veh, TAMM41 / RFU, KIAA1704 /// LOC100996395 / Fold change vs veh, KIAA1704 /// LOC100996395 / RFU, ING1 / Fold change vs veh, ING1 / RFU, TRMT61B / Fold change vs veh, TRMT61B / RFU, FUBP3 / Fold change vs veh, FUBP3 / RFU, TP53 / Fold change vs veh, TP53 / RFU, TNKS2 / Fold change vs veh, TNKS2 / RFU, ZFP14 / Fold change vs veh, ZFP14 / RFU, ACTR2 / Fold change vs veh, ACTR2 / RFU, PPP3R1 / Fold change vs veh, PPP3R1 / RFU, PIK3R1 / Fold change vs veh, PIK3R1 / RFU, HNRNPA1 / Fold change vs veh, HNRNPA1 / RFU, RNF170 / Fold change vs veh, RNF170 / RFU, ZNF28 / Fold change vs veh, ZNF28 / RFU, RNGTT / Fold change vs veh, RNGTT / RFU, OGT / Fold change vs veh, OGT / RFU, BRD1 / Fold change vs veh, BRD1 / RFU, MARS / Fold change vs veh, MARS / RFU, ZNF655 / Fold change vs veh, ZNF655 / RFU, FAHD1 / Fold change vs veh, FAHD1 / RFU, BDP1 / Fold change vs veh, BDP1 / RFU, LRRCC1 / Fold change vs veh, LRRCC1 / RFU, ARID1A / Fold change vs veh, ARID1A / RFU, ZNF146 / Fold change vs veh, ZNF146 / RFU, ZNF330 / Fold change vs veh, ZNF330 / RFU, GPN3 / Fold change vs veh, GPN3 / RFU, C9orf123 / Fold change vs veh, C9orf123 / RFU, N4BP2L2 / Fold change vs veh, N4BP2L2 / RFU, ARFIP1 / Fold change vs veh, ARFIP1 / RFU, FAM179B / Fold change vs veh, FAM179B / RFU, BCL10 / Fold change vs veh, BCL10 / RFU, UHRF1BP1L / Fold change vs veh, UHRF1BP1L / RFU, BET1 / Fold change vs veh, BET1 / RFU, CNOT2 / Fold change vs veh, CNOT2 / RFU, ZNF268 / Fold change vs veh, ZNF268 / Fold change vs veh, ZNF507 / RFU, DGCR2 / Fold change vs veh, DGCR2 / RFU, WDSUB1 / Fold change vs veh, WDSUB1 / Fold change vs veh, HSP90B1 /// MIR3652 / RFU, ADSS / Fold change vs veh, ADSS / RFU, GK / Fold change vs veh, GK / RFU, ZNF148 / Fold change vs veh, ZNF148 / RFU, TAF9 / Fold change vs veh, TAF9 / RFU, SLC1A5 / Fold change vs veh, SLC1A5 / RFU, SLMO2 / Fold change vs veh, SLMO2 / RFU, ABCC4 / Fold change vs veh, ABCC4 / RFU, LOC101060439 /// RAP1B / Fold change vs veh, LOC101060439 /// RAP1B / RFU, RFX7 / Fold change vs veh, RFX7 / RFU, GTPBP10 / Fold change vs veh, GTPBP10 / RFU, CNEP1R1 / Fold change vs veh, CNEP1R1 / RFU, BIVM-ERCC5 /// ERCC5 / Fold change vs veh, BIVM-ERCC5 /// ERCC5 / RFU, ILF3 / Fold change vs veh, ILF3 / RFU 11762660_at / Fold change /veh 11762660_at / RFU VCAN (11757783_s_at) / Fold change /veh VCAN (11757783_s_at) / RFU DDX43 (11728927_at) / Fold change /veh DDX43 (11728927_at) / RFU KRT8 (11758188_x_at) / Fold change /veh KRT8 (11758188_x_at) / RFU NKD1 (11759106_at) / Fold change /veh NKD1 (11759106_at) / RFU SRD5A1 (11742802_a_at) / Fold change /veh SRD5A1 (11742802_a_at) / RFU TPSAB1 /// TPSB2 (11721975_s_at) / Fold change /veh TPSAB1 /// TPSB2 (11721975_s_at) / RFU GSTM3 (11746129_a_at) / Fold change /veh GSTM3 (11746129_a_at) / RFU IL23R (11737362_x_at) / Fold change /veh IL23R (11737362_x_at) / RFU TMEM51 (11727254_a_at) / Fold change /veh TMEM51 (11727254_a_at) / RFU PIWIL2 (11732686_x_at) / Fold change /veh PIWIL2 (11732686_x_at) / RFU ORM1 (11744905_x_at) / Fold change /veh ORM1 (11744905_x_at) / RFU CCDC152 (11743942_at) / Fold change /veh CCDC152 (11743942_at) / RFU ECM1 (11717891_a_at) / Fold change /veh ECM1 (11717891_a_at) / RFU IL23R (11748794_a_at) / Fold change /veh IL23R (11748794_a_at) / RFU TNFAIP8L3 (11732012_x_at) / Fold change /veh TNFAIP8L3 (11732012_x_at) / RFU MBOAT4 (11741988_at) / Fold change /veh MBOAT4 (11741988_at) / RFU 11764193_at / Fold change /veh 11764193_at / RFU TMEM53 (11763286_at) / Fold change /veh TMEM53 (11763286_at) / RFU MAGEB2 (11727129_at) / Fold change /veh MAGEB2 (11727129_at) / RFU TMEM200A (11744735_a_at) / Fold change /veh TMEM200A (11744735_a_at) / RFU CCDC152 (11751479_a_at) / Fold change /veh CCDC152 (11751479_a_at) / RFU FAM211A (11726209_a_at) / Fold change /veh FAM211A (11726209_a_at) / RFU RGS16 (11746705_a_at) / Fold change /veh RGS16 (11746705_a_at) / RFU VCAN (11755009_s_at) / Fold change /veh VCAN (11755009_s_at) / RFU RHOB (11743442_s_at) / Fold change /veh RHOB (11743442_s_at) / RFU RGS16 (11720943_a_at) / Fold change /veh RGS16 (11720943_a_at) / RFU RGS16 (11720944_at) / Fold change /veh RGS16 (11720944_at) / RFU, VPS4B / Fold change vs veh, VPS4B / RFU, CREB1 / Fold change vs veh, CREB1 / RFU, DNAJC13 / Fold change vs veh, DNAJC13 / RFU, GNAQ / Fold change vs veh, GNAQ / RFU, CDK5R1 / Fold change vs veh, CDK5R1 / RFU, ZRANB3 / Fold change vs veh, ZRANB3 / RFU, CUL4A / Fold change vs veh, CUL4A / RFU, CCNY / Fold change vs veh, CCNY / RFU, UFL1 / Fold change vs veh, UFL1 / RFU, COG3 / Fold change vs veh, COG3 / RFU, DIAPH2 / Fold change vs veh, DIAPH2 / RFU, SKA2 / Fold change vs veh, SKA2 / RFU, AFF3 / Fold change vs veh, AFF3 / RFU, LMF1 / Fold change vs veh, LMF1 / RFU, IPO11 / Fold change vs veh, IPO11 / RFU, DFFB / Fold change vs veh, DFFB / RFU, FOXP1 / Fold change vs veh, FOXP1 / RFU, CARD8 / Fold change vs veh, CARD8 / RFU, STRN3 / Fold change vs veh, STRN3 / RFU, ADK / Fold change vs veh, ADK / RFU, RASSF2 / Fold change vs veh, RASSF2 / RFU, WIPF1 / Fold change vs veh, WIPF1 / RFU, LARP1B / Fold change vs veh, LARP1B / RFU, RASA1 / Fold change vs veh, RASA1 / RFU, RB1 / Fold change vs veh, RB1 / RFU, PPFIA1 / Fold change vs veh, PPFIA1 / RFU, MAT2A / Fold change vs veh, MAT2A / RFU, CCT5 / Fold change vs veh, CCT5 / RFU, WDR92 / Fold change vs veh, WDR92 / RFU, CUX1 / Fold change vs veh, CUX1 / RFU, TTC7A / Fold change vs veh, TTC7A / RFU, TMEM135 / Fold change vs veh, TMEM135 / RFU, DEPTOR / Fold change vs veh, DEPTOR / RFU, CPM / Fold change vs veh, CPM / RFU, DNAJB6 / Fold change vs veh, DNAJB6 / RFU, CACNA2D3 / Fold change vs veh, CACNA2D3 / RFU, DTX4 / Fold change vs veh, DTX4 / RFU, TFCP2 / Fold change vs veh, TFCP2 / RFU, GMCL1 /// GMCL1P1 / Fold change vs veh, GMCL1 /// GMCL1P1 / RFU, AEBP2 / Fold change vs veh, AEBP2 / RFU, SNHG1 /// SNORD22 /// SNORD25 /// SNORD26 /// SNORD27 /// SNORD28 /// SNORD29 /// SNORD31 / Fold change vs veh, SNHG1 /// SNORD22 /// SNORD25 /// SNORD26 /// SNORD27 /// SNORD28 /// SNORD29 /// SNORD31 / Fold change (Aza/veh), C12orf56 (ProbeSet 11735607_a_at) / Fold change (ACY-1035/veh), C12orf56 (ProbeSet 11735607_a_at) / Fold change (Aza/veh), FGFR1OP (ProbeSet 11751329_s_at) / Fold change (ACY-1035/veh), FGFR1OP (ProbeSet 11751329_s_at) / Fold change (Aza/veh), VPS36 (ProbeSet 11739960_a_at) / Fold change (ACY-1035/veh), VPS36 (ProbeSet 11739960_a_at) / RFU SYPL1 (11715823_x_at) / Fold change /veh SYPL1 (11715823_x_at) / RFU IGFBP7 (11715501_s_at) / Fold change /veh IGFBP7 (11715501_s_at) / RFU REEP3 (11722064_at) / Fold change /veh REEP3 (11722064_at) / RFU IGLL1 (11728026_x_at) / Fold change /veh IGLL1 (11728026_x_at): dose or concentration left out as unconfirmed", "details": "MV-4-11 cells, 48 hours", "data": [{"smiles": "Nc1ccc(-c2cccs2)cc1NC(=O)c1ccc2c(c1)cc(C1CC1)n2CCN1CCOCC1", "note": "[ACY-1035]", "values": [{"measurement": "RFU ID3 (11757404_x_at)", "value": 47.18, "unit": "RFU"}]}]}
